Data reported in patent US5079260A, “Method for treating inflammation and compounds and compositions suitable for use therein” (Nova Pharmaceutical Corporation, priority 1990, dated 1992).

Columns and labels:
[1] = system: Reverse Passive Artus Reaction; assay: Reverse Passive Artus Reaction (I), Table 6; type: in vivo, Male CD rats; details: inhibition of blueing
Source text: (§1) Such inflammatory agents typically include tetradecanoylphorbolacetate, arachidonic acid, xylene, capsaicin, oxazolone, carrageenan and the like. The reverse passive Arthus test offers another measure of the compound's utility in preventing an inflammatory response (Chang et al, Eur. J. Pharm. 69:155-164 (1981)). Test compounds are typically administered intraperitoneally or topically. For intraperitoneal administration, the test compound can be given in dimethyl sulfoxide or in 0.5% methylcellulose 30 minutes prior to administration of the irritant. For topical administration, the test compound can be dissolved in, for example, acetone, ethanol or dimethyl sulfoxide and applied about 15 minutes prior to application of the irritant. Results can be expressed as the percent decrease in swelling in the compound-treated animals as compared to control animals that receive only the irritant.
Reverse Passive Artus Reaction (I)
Male CD rats weighing between 200 and 250 g were used. Test compounds (compounds of Formula I where X is oxygen, R3, R4, A and B are hydrogen and Q is as indicated in Table 6) were dissolved in dimethyl sulfoxide and 200 μl of this solution (100 mg/kg) were injected intraperitoneally one hour before administration of the antigen. The animals were anesthetized inhalationally with isoflurane and then were injected through the penile vein with 1 ml of a solution of 2.5 mg of Evan's blue dye and 5.0 mg of human serum albumin in 1 ml of saline. This treatment was followed immediately by intracutaneous injections of 0.03 ml of anti-human albumin diluted to contain 3.65 mg of antibody at 3 sites along the midline back. Anesthesia was terminated and after three hours the animals were sacrificed. The skin was removed and the blue stained areas cut out. […] The tube contents were agitated and centrifuged, and the absorbance of the supernatant liquid was measured at 620 nm. The data were calculated as inhibition of blueing by test compound compared to control animals receiving only antigen and antibody.

[2] = system: Ear Edema Caused by Tetradecanoylphorbolacetate; assay: Inhibition of Ear Edema Caused by Tetradecanoylphorbolacetate (I), Table 1; type: in vivo, CF-1 Mice; details: i.p.
Source text: as §1
Inhibition of Ear Edema Caused by Tetradecanoylphorbolacetate (I)
CF-1 Mice, 25-30 g body weight, six animals per group, were used. Test compounds (compounds of Formula I where X is oxygen, R3, R4, A and B are hydrogen and Q is as indicated in Table 1) were administered intraperitoneally (100 mg/kg) or topically as follows. For intraperitoneal administration, the test compound was dissolved in dimethyl sulfoxide or 0.5% methylcellulose and 100 μl was injected 30 minutes prior to irritant (100 mg/kg, i.p.). For topical administration, the test compound was dissolved in either acetone, ethanol or dimethyl sulfoxide and 5 μl (100 μg) applied to the upper surface (1 cm^2) of the ear and an additional 5 μl (100 μg) applied to the lower surface (1 cm^2) of the ear fifteen minutes prior to application of the irritant. A solution of the irritant, tetradecanoylphorbolacetate, 200 μg/ml, was added to the surface of the ear, 5 μl added to the upper surface and 5 μl to the lower surface. After three hours, the thickness of the ear was measured to 0.01 mm by a micrometer with loose drag positioned at the lateral-most edge of the mid-point of the pinna. Data were calculated as the inhibition by the test compound of increased ear thickness compared to control animals receiving only the irritant.

[3] = system: Ear Edema Caused by Oxazolone; assay: Inhibition of Ear Edema Caused by Oxazolone (I), Table 5; type: in vivo, CF-1 Mice; details: 24 h
Source text: as §1
Inhibition of Ear Edema Caused by Oxazolone (I)
CF-1 Mice, 25-30 g body weight, six animals per group, were used. The mice were sensitized to the irritant two weeks prior to the test by dribbling 100 μl of a 3% solution of oxazolone in acetone onto the abdominal skin of the animal. Test compounds (compounds of Formula I where X is oxygen, R3, R4, A and B are hydrogen and Q is as indicated in Table 5) were administered intraperitoneally as follows. The test compound was dissolved in DMSO or 0.5% methylcellulose and 100 μl (100 mg/kg) was injected 30 minutes prior to irritant. The irritant, 3% oxazolone in acetone, was added to the surface of the ear, 5 μl added to the upper surface and 5 μl to the lower surface. After twenty four hours, the thickness of the ear was measured to 0.01 mm by a micrometer with loose drag positioned at the lateral-most edge of the mid-point of the pinna. Data were calculated as the inhibition by the test compound of increased ear thickness compared to control animals receiving only the irritant.

[4] = system: Ear Edema Caused By Tetradecanoylphorbol Acetate; assay: Inhibition of Ear Edema Caused by Tetradecanoylphorbol Acetate (II), Table 7; type: in vivo, CF-1 Mice; details: i.p., 3 h
[5] = system: Ear Edema Caused by Arachidonic Acid; assay: Inhibition of Ear Edema Caused by Arachidonic Acid (II), Table 8; type: in vivo, CF-1 mice; details: i.p., sixty minutes
In short: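 CF-1 mice (25-30 g, six/group) dosed intraperitoneally with compound in DMSO or 0.5% methylcellulose 30 min before topical arachidonic acid (100 mg/mL in ethanol, both ear surfaces).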

[6] = system: Ear Edema Caused by Xylene; assay: Inhibition of Ear Edema Caused by Xylene (II), Table 9; type: in vivo, CF-1 mice; details: i.p., 2 h
In short: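 CF-1 mice (25-30 g, six per group) received compound i.p. in DMSO or 0.5% methylcellulose 30 min before xylene was applied to both ear surfaces. Ear thickness was measured by micrometer 2 h later. Values are percent inhibition of the increase in ear thickness versus irritant-only controls.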

[7] = system: Reverse Passive Artus Reaction; assay: Reverse Passive Artus Reaction (II), Table 11; type: in vivo, Male CD rats; details: inhibition of blueing, i.p.
[8] = system: Ear Edema Caused by Arachidonic Acid; assay: Inhibition of Ear Edema Caused by Arachidonic Acid (I), Table 2; type: in vivo, CF-1 Mice; details: i.p., 100 mg/kg; ear thickness at sixty minutes
Source text: as §1
Inhibition of Ear Edema Caused by Arachidonic Acid (I)
CF-1 Mice, 25-30 g body weight, six animals per group, were used. Test compounds (compounds of Formula I where X is oxygen, R3, R4, A and B are hydrogen and Q is as indicated in Table 2) were administered intraperitoneally (100 mg/kg) as follows. For intraperitoneal administration, test compound was dissolved in DMSO or 0.5% methylcellulose and 100 μl was injected 30 minutes prior to i.p. administration of 100 mg/kg of arachidonic acid. A solution of the irritant, arachidonic acid, 100 mg/ml in ethanol, was added to the surface of the ear, 5 μl added to the upper surface and 5 μl to the lower surface. After sixty minutes, the thickness of the ear was measured to 0.01 mm by a micrometer with loose drag positioned at the lateral-most edge of the mid-point of the pinna. Data were calculated as the percent inhibition by the test compound of increased ear thickness compared to control animals receiving only the irritant.

[9] = system: Ear Edema Caused by Xylene; assay: Inhibition of Ear Edema Caused by Xylene (I), Table 3; type: in vivo, CF-1 Mice; details: 2 h; for % Inhibition Intraperitoneal: i.p., 100 mg/kg, 30 min before irritant
Source text: as §1
Inhibition of Ear Edema Caused by Xylene (I)
CF-1 Mice, 25-30 g body weight, six animals per group, were used. Test compounds (compounds of Formula I where X is oxygen, R3, R4, A and B are hydrogen and Q is as indicated in Table 3) were administered intraperitoneally (100 mg/kg) or topically as follows. For intraperitoneal administration, the test compound was dissolved in DMSO or 0.5% methylcellulose and 100 μl was injected 30 minutes prior to irritant. For topical administration, test compound was dissolved in either acetone, ethanol or dimethyl sulfoxide and 5 μl (10 μg) applied to the upper surface (1 cm^2) of the ear and an additional 5 μl (10 μg) applied to the lower surface (1 cm^2) of the ear fifteen minutes prior to application of the irritant. The irritant, xylene, was added to the surface of the ear, 20 μl added to the upper surface and 20 μl to the lower surface. After two hours, the thickness of the ear was measured to 0.01 mm by a micrometer with loose drag positioned at the lateral-most edge of the mid-point of the pinna. Data were calculated as the inhibition by the test compound of increased ear thickness compared to that of control animals receiving only the irritant.

[10] = system: Ear Edema Caused by Oxazolone; assay: Inhibition of Ear Edema Caused by Oxazolone (II), Table 10; type: in vivo, CF-1 mice; details: i.p., 24 h
[11] = system: Adjuvant Induced Fibrinogen; assay: Adjuvant Arthritis: Inhibition of Adjuvant Induced Fibrinogen, Table 12; type: in vivo, Male Sprague Dawley rats; details: i.p., 100 mg/kg, day 3
[12] = 100 mg/kg, 30 min before irritant, ear thickness at 3 h

Structure (SMILES) | % Inhibition Intraperitoneal ([4]; 10 mg/kg) [%] | % Inhibition Intraperitoneal ([5]; 10 mg/kg) [%] | % Inhibition ([6]; 10 mg/kg) [%] | % Inhibition Intraperitoneal [2, 12] [%] | % Inhibition Intraperitoneal ([4]; 30 mg/kg) [%] | % Inhibition Intraperitoneal ([4]; 100 mg/kg) [%] | % Inhibition Intraperitoneal ([5]; 30 mg/kg) [%] | % Inhibition Intraperitoneal ([5]; 100 mg/kg) [%] | % Inhibition ([6]; 30 mg/kg) [%] | % Inhibition ([6]; 100 mg/kg) [%] | also measured
COc1cc2c(c(OC)c1OC)-c1ccc(OC)c(=O)cc1[C@@H](NC(C)=O)CC2 [Colchicine, reference compound] |  |  |  |  |  |  |  |  |  |  | % Inhibition Intraperitoneal ([1]; Reference Standard 1 mg/kg): 64%
C[C@@H]1C[C@H]2[C@@H]3CCC4=CC(=O)C=C[C@]4(C)[C@@]3(F)[C@@H](O)C[C@]2(C)[C@@]1(O)C(=O)CO [Dexamethasone, reference compound] | 50 | 12 | 34 |  |  |  |  |  |  |  | % Inhibition Intraperitoneal ([2]; Reference Standard, 10 mg/kg, 3 h): 50%; % Inhibition Intraperitoneal ([3]; Reference Standard at 10 mg/kg): 48%; % Inhibition Intraperitoneal ([7]; 10 mg/kg): 4%
NCCCC[C@H](N)C(=O)O [L-Lysine] |  |  |  | 14 |  |  |  |  |  |  | 
O=C(N[C@@H](Cc1ccccc1)C(=O)O)OCC1c2ccccc2-c2ccccc21 [L-Phenylalanine, N-[(9H-Fluoren-9-ylmethoxy)carbonyl]-L-phenylalanine] |  |  |  | 78 |  |  |  |  |  |  | % Inhibition Intraperitoneal [8]: 70%; % Inhibition Intraperitoneal [9]: 49%; % Inhibition, topical ([9]; topical, 10 μg upper + 10 μg lower ear surface, 15 min before irritant): 50%; % Inhibition Intraperitoneal ([3]; i.p., 100 mg/kg, 30 min before irritant, sensitized mice): 62%; % Inhibition Intraperitoneal ([1]; i.p., 100 mg/kg, one hour before antigen): 47%
CC(C)C[C@H](NC(=O)OCC1c2ccccc2-c2cc3ccccc3cc21)C(=O)O (stereo partly drawn) [NPC 15510, N-[9H-(2,3-Benzofluoren-9-ylmethoxy)carbonyl]-L-leucine] | 48 | -24 | 40 |  | 70 | 70 | 69 | 67 | 40 | 49 | % Inhibition Intraperitoneal ([10]; 10 mg/kg): -7%; % Inhibition Intraperitoneal ([10]; 30 mg/kg): 3%; % Inhibition Intraperitoneal ([10]; 100 mg/kg): 101%; % Inhibition Intraperitoneal ([7]; 100 mg/kg): 50%; % Inhibition [11]: 35%
CC(C)C[C@H](NC(=O)OCC1c2ccccc2-c2ccccc21)C(N)=O [NPC 15528, N-[(9H-Fluoren-9-ylmethoxy)carbonyl]-L-leucine Amide] | 61 | 31 | 20 |  | 64 | 75 | 32 | 35 | 27 | 39 | % Inhibition Intraperitoneal ([10]; 10 mg/kg): 41%; % Inhibition Intraperitoneal ([10]; 30 mg/kg): 25%; % Inhibition Intraperitoneal ([10]; 100 mg/kg): 46%; % Inhibition Intraperitoneal ([7]; 100 mg/kg): 0%; % Inhibition [11]: 0%
CN1C(C(=O)Nc2ccccn2)=C(O)c2ccccc2S1(=O)=O [Piroxicam, reference compound] | 7 | 56 | 53 | 40 | 14 | 40 | 77 | 86 | 49 | 74 | % Inhibition Intraperitoneal [8]: 86%; % Inhibition Intraperitoneal [9]: 74%
